# From patent publication US11779597B2, “Method of treating Parkinson's and other neurodegenerative diseases” (Vector Vitale IP LLC, priority 2019, dated 2023)
# Legend:
# Assay type in all cases: in vivo
# [1] = tested on: circulating phagocytes (monocytes and neutrophils); test: Hemogram and functional profile of circulating phagocytes in 6-OHDA rat models after prophylactic administration; conditions: prophylactic i.p.
# Description: Methods: Adult mature rodents were used in the study. […] Before prophylactic administration of the experimental drugs, the animals underwent an open field test to assay their general locomotor activity levels and anxiety. The prophylactic course consisted of 10 daily intraperitoneal injections of the drugs (in the case of combination drug, its components were administered at an interval of 2 hours). After the end of prophylactic course, Parkinson's disease was modelled in the animals. […] Ten days after the last (second) apomorphine test, the animals' behavioral responses were assessed in the open field test followed by euthanasia and analysis of functional (metabolic and phenotypic) profiles of phagocytes of different localization. Thus, the study of the functional profile of phagocytes in rat models of Parkinson's disease was performed on day 28 after the end of the course of prophylactic treatment with the experimental drugs. […] Functional characteristics of circulating phagocytes (monocytes and neutrophils) were evaluated in whole blood taken into a tube containing EDTA used as an anticoagulant. Mononuclear and polymorphonuclear phagocytes were analyzed on a flow cytofluorimeter using a gating method. […] The hemogram parameters were analyzed on the hematological analyzer Particle counter model PCE 210 (ERMA, Japan) adapted for the study of blood cells of rats and mice.
# [2] = tested on: LPS rat models of Parkinson's disease; test: Open field test
# From the text: Method. The open field test is a technique commonly used to measure locomotor activity of rodents and their level of exploratory activity in an unfamiliar environment, as well as assess the levels of fear of novelty, anxiety or an increase in orientation response in rodents (Denenberg V H, et al., Physiology and Behavior, 1969; 4:403-406; Pellow S et al., J Neurosci Methods. 1985; 14(3):149-67). Behavioral patterns measured in the open field test include: distance travelled in the outer and inner perimeter, duration of time spent in the outer and inner perimeter, the total distance travelled and a percentage of the number of internal squares crossed compared to the total number of squares.
# The open field was a square chamber 100×100 cm in size and with walls 60 cm high. The chamber was illuminated by two LED bulbs, 60 watts each, hanging at a height of 2 m. An IP camera was used to record the rodent movement. The MATLAB-based software was used to analyze the parameters. The statistical analysis was performed using GraphPad Prism. Significance was set at <0.005. The data collected from the open field were analyzed using One-way ANOVA (Tukey test or Dunnett test) and Unpaired t-test or Mann-Whitney.
# Data analysis and interpretation. A novel environment in which an animal finds itself evokes conflict between fear and a desire to explore this environment. These two behavioral tendencies are characterized by different temporal variations and different spatial advantages. In the analysis, an arena is divided into two zones: inner and outer. The total locomotor activity and time spent in the inner and outer zones are the most significant parameters for assessing the levels of anxiety in rats. […] An increase in attendance of the inner zone is interpreted as a decreased anxiety in the animal. The emotional and exploratory behavior of an animal can be affected by various disorders in such brain regions as the hippocampus and the amygdala. In addition, various substances that have anxiolytic, stimulating and muscle relaxant effects can influence the results of the experiment. FIG. 50A and FIG. 50B show an example of analysis of a rat trajectory in the experimental arena.
# (§1) On the 1st day of the experiment, rats were either operated to model hemi-parkinsonism or sham operated. From the 9th to the 18th day of the experiment, the animals were injected either deuterium-depleted water or the test substance, according to their allocation into groups, for 10 days. On the 8th day of the experiment (before initiation of treatment—apomorphine test I) and on the 21st day of the experiment (after the end of administering the test substance —apomorphine test II) the animals underwent an apomorphine test to analyze the development of hemi-parkinsonism which correlates with the number of destroyed dopaminergic neurons. In addition, a follow-up analysis of fecal water content was carried out, i.e., before the start of treatment on the 8th day after the operation, as well as on the 21st (after the end of treatment) and the 28th day (before autopsy). On the 24th day of the experiment, behavioral tests were carried out in all groups. All animals were weighed before autopsy. During autopsy, ⅔ of animals from each group were sacrificed by cervical dislocation and brain and blood samples were collected for further biochemical and immunological tests. ⅓ of the animals were used for further immunohistochemical studies of the brain; for this purpose, under anesthesia, a procedure of fast, controlled and uniform fixation of the whole body of the animal was performed using 4% paraformaldehyde perfused through the heart of the rat to obtain the best preservation of the brain architecture for immunohistochemistry. Gage G J, et al., J Vis Exp. 2012 Jul. 30; (65).
# microglia = test: Functional and phenotypic properties of microglia in LPS rat models; conditions: LPS animal models of PD
# Description: as §1
# To assess the anti-inflammatory and immunomodulating effects of the test substance, microglia and peritoneal macrophages were isolated. Phenotypic and functional features of peripheral blood phagocytes were evaluated without their fractioning (using whole blood). […]
# Phagocytic activity of microglia, peritoneal macrophages and peripheral blood phagocytes was analyzed on a flow cytometer using FITC-labeled S. aureus Wood 46 cells as an object of phagocytosis. […]
# Oxidative metabolism of phagocytes of various localization was analyzed by flow cytometry using the cell-permeant 2′7′-dichlorodihydrofluorescein-diacetate (DHP) (carboxy-H2DCFDA, Invitrogen, USA) which is converted by intracellular esterases to the nonfluorescent membrane-impermeable carboxy-H2DCF form.
# The phenotypic profile of phagocytes of various localization was characterized by the expression of markers of functional maturity and metabolic polarization (CD206, CD80 and CD86), which was determined by flow cytometry and the use of monoclonal antibodies of appropriate specificity marked with fluorescent dyes (Abcam, Becton Dickinson).
substance,measurement,setting,value
^64Zn-enriched zinc aspartate [^64Zne-asp],oxidative metabolism in circulating neutrophils,[1],absence of any disturbances
same,phagocytic activity of circulating monocytes,[1],did not differ from that of intact animals
same,frequency of defecations (in words),[2]; LPS + ^64Zn-asp versus LPS + deuterium-depleted water,increased
same,Number of defecations,"[2]; LPS + ^64Zn-asp, Gr. V",7 ± 2.582
same,Number of groomings,"[2]; LPS + ^64Zn-asp, Gr. V",3.5 ± 1.354
same,Number of rearings,"[2]; LPS + ^64Zn-asp, Gr. V",14.4 ± 6.687
same,Time spent in the inner perimeter,"[2]; LPS + ^64Zn-asp, Gr. V",9.235 ± 9.344 s
same,Time spent in the outer perimeter,"[2]; LPS + ^64Zn-asp, Gr. V",290.8 ± 9.333 s
same,"Total distance travelled, cm","[2]; LPS + ^64Zn-asp, Gr. V",1056 ± 423 cm
same,"levels of locomotor activity, anxiety or irritability (summary of behavioral tests)",[2]; findings of Example 7,no significant effects
same,"total distance travelled, time in outer and inner perimeter, number of rearings and groomings (in words)",[2]; group V (LPS+^64Zn-asp) versus group IV (LPS),did not have any effect
same,expression of CD86 by microglia,microglia,significant increase
same,expression of CD206 by microglia,microglia,increased expression
same,oxidative metabolism of microglia,microglia,slightly but statistically significantly increased
same,phagocytic activity of microglia,microglia,sharp increase
